From patent publication US7964531B2, “3-phenoxy-4-pyridazinol derivatives and herbicidal composition containing the same” (Mitsui Chemicals Agro, Inc., priority 2001, dated 2011)

Columns and labels:
Format in all cases: in vivo
corn [1] = assay: Test Example 6: crop injury against corn (foliar treatment); conditions: after 14 days
Excerpt: (§1) Judgment Standard • 0: Growth inhibition rate; 0 to 9% • 1: Growth inhibition rate; 10 to 19% • 2: Growth inhibition rate; 20 to 29% • 3: Growth inhibition rate; 30 to 39% • 4: Growth inhibition rate; 40 to 49% • 5: Growth inhibition rate; 50 to 59% • 6: Growth inhibition rate; 60 to 69% • 7: Growth inhibition rate; 70 to 79% • 8: Growth inhibition rate; 80 to 89% • 9: Growth inhibition rate; 90 to 98% • 10: Growth inhibition rate; 99 to 100%.
(§2) Upland soil was filled in 150 cm^2 pot, and seeds of barnyardgrass, Cyperus esculentus L., velvetleaf, black nightshade, tall morningglory and corn were sowed, and grown in a greenhouse. After the weeds were grown with 10 to 15 cm or so, a predetermined chemical dosage of the wettable powder prepared in accordance with Preparation example 5 was diluted with water containing 0.05% of GRAMIN S and applied as a foliar treatment. After 14 days from the treatment, herbicidal effects and crop injury were judged in accordance with the judgment standard of Test example 5, and the results were shown in Tables 9 and 10. Incidentally, “-” in the table means no effective ingredient was contained.

corn [2] = assay: Test Example 5: crop injury against corn (soil treatment); conditions: after 21 days
Experimental: (§3) Upland soil was filled in 150 cm^2 pot, and seeds of barnyardgrass, Cyperus esculentus L., velvetleaf, black nightshade, tall morningglory and corn were sowed, and grown in a greenhouse. At the next day of seeding, a predetermined chemical dosage of the wettable powder prepared in accordance with Preparation example 5 was diluted with water and applied to soil surface. After 21 days from the treatment, herbicidal effects and crop injury against corn were judged according to the following judgment standard, and the results were shown in Tables 6 to 8.
as §1

velvetleaf [3] = assay: Test Example 5: herbicidal effects, upland (soil treatment); conditions: after 21 days
Experimental: as §3, §1

black nightshade [4] = assay: as above; conditions: after 21 days
Experimental: as §3, §1

barnyardgrass [5] = assay: as above; conditions: after 21 days
Experimental: as §3, §1

tall morningglory [6] = assay: as above; conditions: after 21 days
Experimental: as §3, §1

Cyperus esculentus L. [7] = assay: as above; conditions: after 21 days
Experimental: as §3, §1

velvetleaf [8] = assay: Test Example 6: herbicidal effects, upland (foliar treatment); conditions: after 14 days
Excerpt: as §1, §2

black nightshade [9] = assay: as above; conditions: after 14 days
Excerpt: as §1, §2

barnyardgrass [10] = assay: as above; conditions: after 14 days
Excerpt: as §1, §2

tall morningglory [11] = assay: as above; conditions: after 14 days
Excerpt: as §1, §2

Cyperus esculentus L. [12] = assay: as above; conditions: after 14 days
Excerpt: as §1, §2

SMILES: CS(=O)(=O)c1ccc(C(=O)C2C(=O)CCCC2=O)c(Cl)c1 [Compound E, 2-(2-chloro-4-mesylbenzoyl)cyclohexan-1,3-dione]
- Crop injury against corn (corn [1]; E alone 50 g/ha): 0 (Growth inhibition rate; 0 to 9%)
- Crop injury against corn (corn [1]; E alone 100 g/ha): 0 (Growth inhibition rate; 0 to 9%)
- Crop injury against corn (corn [1]; E alone 200 g/ha): 0 (Growth inhibition rate; 0 to 9%)
- Crop injury against corn (corn [2]; E alone 50 g/ha): 0 (Growth inhibition rate; 0 to 9%)
- Crop injury against corn (corn [2]; E alone 100 g/ha): 0 (Growth inhibition rate; 0 to 9%)
- Crop injury against corn (corn [2]; E alone 200 g/ha): 0 (Growth inhibition rate; 0 to 9%)
- Herbicidal effects Velvetleaf (velvetleaf [3]; E alone 50 g/ha): 7 (Growth inhibition rate; 70 to 79%)
- Herbicidal effects Velvetleaf (velvetleaf [3]; E alone 100 g/ha): 7 (Growth inhibition rate; 70 to 79%)
- Herbicidal effects Velvetleaf (velvetleaf [3]; E alone 200 g/ha): 10 (Growth inhibition rate; 99 to 100%)
- Herbicidal effects Black Nightshade (black nightshade [4]; E alone 50 g/ha): 7 (Growth inhibition rate; 70 to 79%)
- Herbicidal effects Black Nightshade (black nightshade [4]; E alone 100 g/ha): 6 (Growth inhibition rate; 60 to 69%)
- Herbicidal effects Black Nightshade (black nightshade [4]; E alone 200 g/ha): 9 (Growth inhibition rate; 90 to 98%)
- Herbicidal effects Barnyard grass (barnyardgrass [5]; E alone 50 g/ha): 7 (Growth inhibition rate; 70 to 79%)
- Herbicidal effects Barnyard grass (barnyardgrass [5]; E alone 100 g/ha): 9 (Growth inhibition rate; 90 to 98%)
- Herbicidal effects Barnyard grass (barnyardgrass [5]; E alone 200 g/ha): 10 (Growth inhibition rate; 99 to 100%)
- Herbicidal effects Tall Morningglory (tall morningglory [6]; E alone 50 g/ha): 6 (Growth inhibition rate; 60 to 69%)
- Herbicidal effects Tall Morningglory (tall morningglory [6]; E alone 100 g/ha): 7 (Growth inhibition rate; 70 to 79%)
- Herbicidal effects Tall Morningglory (tall morningglory [6]; E alone 200 g/ha): 10 (Growth inhibition rate; 99 to 100%)
- Herbicidal effects Cyperus esculentus (Cyperus esculentus L. [7]; E alone 50 g/ha): 8 (Growth inhibition rate; 80 to 89%)
- Herbicidal effects Cyperus esculentus (Cyperus esculentus L. [7]; E alone 100 g/ha): 8 (Growth inhibition rate; 80 to 89%)
- Herbicidal effects Cyperus esculentus (Cyperus esculentus L. [7]; E alone 200 g/ha): 8 (Growth inhibition rate; 80 to 89%)
- Herbicidal effects Velvetleaf (velvetleaf [8]; E alone 50 g/ha): 9 (Growth inhibition rate; 90 to 98%)
- Herbicidal effects Velvetleaf (velvetleaf [8]; E alone 100 g/ha): 10 (Growth inhibition rate; 99 to 100%)
- Herbicidal effects Velvetleaf (velvetleaf [8]; E alone 200 g/ha): 10 (Growth inhibition rate; 99 to 100%)
- Herbicidal effects Black Nightshade (black nightshade [9]; E alone 50 g/ha): 9 (Growth inhibition rate; 90 to 98%)
- Herbicidal effects Black Nightshade (black nightshade [9]; E alone 100 g/ha): 10 (Growth inhibition rate; 99 to 100%)
- Herbicidal effects Black Nightshade (black nightshade [9]; E alone 200 g/ha): 10 (Growth inhibition rate; 99 to 100%)
- Herbicidal effects Barnyard grass (barnyardgrass [10]; E alone 50 g/ha): 1 (Growth inhibition rate; 10 to 19%)
- Herbicidal effects Barnyard grass (barnyardgrass [10]; E alone 100 g/ha): 2 (Growth inhibition rate; 20 to 29%)
- Herbicidal effects Barnyard grass (barnyardgrass [10]; E alone 200 g/ha): 7 (Growth inhibition rate; 70 to 79%)
- Herbicidal effects Tall Morningglory (tall morningglory [11]; E alone 50 g/ha): 6 (Growth inhibition rate; 60 to 69%)
- Herbicidal effects Tall Morningglory (tall morningglory [11]; E alone 100 g/ha): 7 (Growth inhibition rate; 70 to 79%)
- Herbicidal effects Tall Morningglory (tall morningglory [11]; E alone 200 g/ha): 9 (Growth inhibition rate; 90 to 98%)
- Herbicidal effects Cyperus esculentus (Cyperus esculentus L. [12]; E alone 50 g/ha): 6 (Growth inhibition rate; 60 to 69%)
- Herbicidal effects Cyperus esculentus (Cyperus esculentus L. [12]; E alone 100 g/ha): 7 (Growth inhibition rate; 70 to 79%)
- Herbicidal effects Cyperus esculentus (Cyperus esculentus L. [12]; E alone 200 g/ha): 8 (Growth inhibition rate; 80 to 89%)
